Assay results taken from ChEMBL document CHEMBL1146184, “Drug self-association modulates the cellular bioavailability of DNA minor groove-directed terbenzimidazoles” (J Med Chem, 2006).

Experiments:
Format in all cases: ADME, cell-based
[1] = test system: RPMI 8402; test: Uptake in human RPMI8402 cells at 1 uM after 4 hrs; details: rpmi 8402, 4 h
[2] = test system: RPMI 8402; test: Uptake in human RPMI8402 cells at 1 uM after 0.5 hrs; details: rpmi 8402, 0.5 h
[3] = test system: RPMI 8402; test: Uptake in human RPMI8402 cells at 1 uM after 1 hr; details: rpmi 8402, 1 h
[4] = test system: RPMI 8402; test: Uptake in human RPMI8402 cells at 1 uM after 2 hrs; details: rpmi 8402, 2 h

SMILES | Drug uptake [1] [%] | Drug uptake [2] [%] | Drug uptake [3] [%] | Drug uptake [4] [%]
c1ccc(-c2ccc3[nH]c(-c4ccc5[nH]c(-c6ccc7cc[nH]c7c6)nc5c4)nc3c2)cc1 | 30 | 18 | – | –
c1ccc(-c2ccc3[nH]c(-c4ccc5[nH]c(-c6ccc7[nH]cnc7c6)nc5c4)nc3c2)cc1 | 3 | 3 | 3 | 3
